Where two headings read alike, the source gives them in different places.
Key:
[1] = cited from earlier work
[2] = Solubility of TSC formulated with cyclodextrin and mannitol; type: physicochemical; details: formulated with a cyclodextrin and mannitol
Source text: A trans carotenoid such as TSC can be formulated with a cyclodextrin as noted above and a non-metabolized sugar such as mannitol (e.g. d-mannitol to adjust the osmotic pressure to be the same as that of blood). […] This solution can be added to isotonic saline or to other isotonic solutions in order to dilute it and still maintain the proper osmolality.

[3] = after hemorrhagic shock in rats; cited from earlier work
[4] = Solubility of TSC in water with gamma-cyclodextrin; type: physicochemical; details: TSC and gamma-cyclodextrin
[5] = cited from earlier work; remark: listed apart in the source
[6] = Absorption into the blood stream after intramuscular injection of TSC with gamma cyclodextrin; type: in vivo; details: injected intramuscularly, rats
Source text: The solutions need not be equal-molar.

SMILES | diffusivity of oxygen in water [1] | TSC concentration of solutions that can be made [2] | diffusivity of oxygen through plasma ([1]; plasma) | whole-body oxygen consumption [3] | TSC concentration reached in aqueous solution [4] | oxygen levels, arterial and tissue ([5]; hypoxemic states) | oxygen levels, arterial and tissue ([5]; normoxic states) | absorption into the blood stream [6]
CC(/C=C/C=C(\C)C(=O)O)=C\C=C\C=C(C)\C=C\C=C(/C)C(=O)O [crocetin, reference compound] | increase the diffusivity of oxygen in water | – | – | – | – | – | – | –
CC(/C=C/C=C(\C)C(=O)[O-])=C\C=C\C=C(C)\C=C\C=C(/C)C(=O)[O-].[Na+].[Na+] [TSC, trans sodium crocetinate] | increase the diffusivity of oxygen in water | over 20 mg TSC/ml of solution | increases the diffusivity of oxygen through plasma | increase whole-body oxygen consumption | ≤ 44 milligrams of TSC per ml of solution | increases oxygen levels | does not | Absorption is quick
